Experiments:
[1] = Safety (body weight, tolerance) in the LU5161 model; type: in vivo, Balb/nude female mice; conditions: Group 6, 1 mg/kg i.v. QD×5, 2 days off, 2 weeks off, QD×5
Description: The test was divided into the following groups: the test drug Ifosfamide 60 mg/kg monotherapy group (Group 2) was administered once a day for 5 consecutive days, rested for 2 days, and then administered once a day for 5 consecutive days again; AST 4 mg/kg monotherapy group (Group 3) and AST 8 mg/kg monotherapy group (Group 4) were administered once a week for a total of 3 weeks; AST 4 mg/kg monotherapy group (Group 5) and AST-3424 1 mg/kg monotherapy group (Group 6) was administered once a day for 5 consecutive days, rested for 2 days, then rested for 2 weeks, and then administered once a day for 5 consecutive days again; and glucose injection (pH 7.7-8.0) vehicle control group (Group 1) was administered once a day for 5 consecutive days, rested for 2 days, then rested for 2 weeks, and then administered once a day for 5 consecutive days again. There were 6 groups in total and 6 mice in each group in this study. Among them, the test drug Ifosfamide was administered intraperitoneally, and the vehicle control group, AST, and AST-3424 were all administered by tail vein injection.

[2] = Safety (body weight, tolerance) in the PA2637 model; type: in vivo, NOD.SCID female mice; conditions: Group 05, 1 mg/kg i.v. QD×5, 2 days off, 2 weeks off
Description: The test was divided into the following groups: the test drug Ifosfamide 60 mg/kg monotherapy treatment group (QD×5/week×2 weeks, Group 2) was administered intraperitoneally once a day for 5 consecutive days, rested for 2 days, and then administered once a day for 5 consecutive days again; AST 8 mg/kg monotherapy group (QW×3, Group 3) was administered through the tail vein once a week for a total of 3 weeks; AST 4 mg/kg monotherapy group (QD×5, 2 days off, 2 weeks off, QD×5, Group 4), AST-3424 1 mg/kg monotherapy group (QD×5, 2 days off, 2 weeks off, QD×5, Group 5) and the vehicle control group glucose injection (pH 7.7-8.0, Group 1) both were administered through the tail vein, and both had the same dosing cycle: administering once a day for 5 consecutive days, resting for 2 days, then resting for 2 weeks, and then administering once a day for 5 consecutive days again. There were 5 groups in total and 6 mice in each group in this experiment.
Correspondingly, the curve graph of the percentage changes of body weight in each treatment group over time was shown in FIG. 20.

C[C@@H](OP(=O)(N1CC1)N1CC1)c1ccc([N+](=O)[O-])c(Oc2cccc(C(=O)N(C)C)c2)c1 [AST-3424]
Percentage change in body weight ([1]; day 0): 0.00%
Percentage change in body weight ([1]; day 1): 0.49%
Percentage change in body weight ([1]; day 2): −3.79%
Percentage change in body weight ([1]; day 3): −3.57%
Percentage change in body weight ([1]; day 4): −3.51%
Percentage change in body weight ([1]; day 7): −0.88%
Percentage change in body weight ([1]; day 11): −1.37%
Percentage change in body weight ([1]; day 14): 1.02%
Percentage change in body weight ([1]; day 18): 12.01%
Percentage change in body weight ([1]; day 21): 3.21%
Percentage change in body weight ([1]; day 22): 13.16%
Percentage change in body weight ([1]; day 23): 4.38%
Percentage change in body weight ([1]; day 24): 1.05%
Percentage change in body weight ([1]; day 25): 1.17%
Percentage change in body weight ([1]; day 28): 7.51%
Percentage change in body weight ([1]; day 31): 3.83%
Percentage changes in body weight of mice ([2]; QD×5, Day 0): 0.00%
Percentage changes in body weight of mice ([2]; QD×5, Day 1): −1.47%
Percentage changes in body weight of mice ([2]; QD×5, Day 2): −2.58%
Percentage changes in body weight of mice ([2]; QD×5, Day 3): −1.85%
Percentage changes in body weight of mice ([2]; QD×5, Day 4): −2.73%
Percentage changes in body weight of mice ([2]; QD×5, Day 7): −1.48%
Percentage changes in body weight of mice ([2]; QD×5, Day 10): −3.80%
Percentage changes in body weight of mice ([2]; QD×5, Day 14): −2.90%
Percentage changes in body weight of mice ([2]; QD×5, Day 17): −1.58%
Percentage changes in body weight of mice ([2]; QD×5, Day 21): −1.29%
Percentage changes in body weight of mice ([2]; QD×5, Day 22): −3.42%
Percentage changes in body weight of mice ([2]; QD×5, Day 23): −3.61%
Percentage changes in body weight of mice ([2]; QD×5, Day 24): −3.68%
Percentage changes in body weight of mice ([2]; QD×5, Day 28): −3.46%
Percentage changes in body weight of mice ([2]; QD×5, Day 31): −3.20%
Percentage changes in body weight of mice ([2]; QD×5, Day 35): −1.43%
